Read-outs that look alike come from different tables or passages of the source.
Tests used:
[1] = tested on: Pseudomonas aeruginosa efflux− (MB9799), IMP-1; assay type: cell-based; settings: concentration restoring susceptibility to imipenem at 2 μg/mL in the presence of a class A, C, D serine β-lactamase inhibitor closely related to relebactam
Outline: (§1)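 Microbroth MIC tests in PAO1-background strains with fixed imipenem and/or ceftazidime, usually at the CLSI breakpoint, plus fixed class A/C β-lactamase inhibitor against AmpC. MBL inhibitor titrated; concentration restoring susceptibility recorded and compared as fold difference between efflux+ MB9798 and efflux− MB9799.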

VIM-1 = VIM-1 (Pseudomonas aeruginosa (strain ATCC 15692 / DSM 22644 / CIP 104116 / JCM 14847 / LMG 12228 / 1C / PRS 101 / PAO1), UniProt A0A0F7KYQ8); experiment: biochemical; settings: CCF2-FA substrate, 30 pM enzyme, 2 hours at 25° C.
Outline: (§2)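 Fluorescence assay, CCF2-FA substrate (cephalosporin core linking 7-hydroxycoumarin to fluorescein); inhibitor + MBL + substrate, 2 h, 25° C. IC50 by 4-parameter fit, semi-log plot.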

[2] = tested on: Pseudomonas aeruginosa efflux+ (MB9798), IMP-1; assay type: cell-based; settings: concentration restoring susceptibility to imipenem at 2 μg/mL in the presence of a class A, C, D serine β-lactamase inhibitor closely related to relebactam
Outline: as §1

[3] = tested on: Klebsiella pneumoniae expressing VIM-1 (IHMA599644); assay type: cell-based; settings: VIM-1 strain IHMA599644, with imipenem 1 μg/ml, 95% inhibition of growth
Outline: (§3)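 Clinical isolates (E. coli NDM-1, S. marcescens IMP-1, K. pneumoniae VIM-1) were diluted 1:100 from saline suspension into 1.1×CAMHB and exposed to test compound with imipenem at 1 μg/ml. Plates were incubated at 35° C for 22 hours to 24 hours, and growth was read by absorbance.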

[4] = tested on: Serratia marcescens expressing IMP-1 (CL5741); assay type: cell-based; settings: IMP-1 strain CL5741, with imipenem 1 μg/ml, 95% inhibition of growth
Outline: as §3

[5] = tested on: Escherichia coli expressing NDM-1 (CLB30005, CLB30016); assay type: cell-based; settings: NDM-1 strain, with imipenem 1 μg/ml, 95% inhibition of growth
Outline: as §3

[6] = tested on: Pseudomonas aeruginosa MB9798 vs MB9799; settings: ratio MITC95 PA_9798/MITC95 PA_9799
Outline: as §1

NDM-1 = NDM-1 (Klebsiella pneumoniae, UniProt C7C422); experiment: biochemical; assay type: biochemical; settings: fluorescence assay, CCF2-FA substrate, 1 pM enzyme, 2 hours at 25° C.; read-out: NDM-1 IC50
Outline: as §2

IMP-1 = IMP-1 (Serratia marcescens, UniProt P52699); experiment: biochemical; assay type: biochemical; settings: fluorescence assay, CCF2-FA substrate, 2 pM enzyme, 2 hours at 25° C.; read-out: IMP-1 IC50
Outline: as §2

[7] = fluorescence assay, read-out: VIM-1 IC50

Chain of IMP-1 (P52699 whole entry, looked up, species assumed): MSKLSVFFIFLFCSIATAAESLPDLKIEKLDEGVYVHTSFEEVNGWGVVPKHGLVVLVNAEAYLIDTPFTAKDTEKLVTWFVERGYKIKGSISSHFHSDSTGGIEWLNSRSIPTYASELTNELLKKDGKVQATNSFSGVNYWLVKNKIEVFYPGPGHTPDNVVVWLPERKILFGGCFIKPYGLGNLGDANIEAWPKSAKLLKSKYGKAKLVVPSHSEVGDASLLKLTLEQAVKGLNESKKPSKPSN
Chain of NDM-1 (C7C422 whole entry, looked up, species assumed): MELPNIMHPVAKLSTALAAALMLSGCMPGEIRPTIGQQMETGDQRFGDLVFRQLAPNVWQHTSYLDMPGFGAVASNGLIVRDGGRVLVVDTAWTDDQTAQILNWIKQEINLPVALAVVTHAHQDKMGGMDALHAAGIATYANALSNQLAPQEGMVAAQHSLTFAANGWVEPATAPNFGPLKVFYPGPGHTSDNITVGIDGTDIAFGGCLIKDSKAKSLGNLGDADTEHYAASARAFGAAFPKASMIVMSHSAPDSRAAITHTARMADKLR

Compound	P. aeruginosa expressing IMP-1, efflux − (MB9799) MITC95 [1] [µM]	IC50 (VIM-1; VIM-1 IC50, fluorescence assay) [nM]	P. aeruginosa expressing IMP-1, efflux + (MB9798) MITC95 [2] [µM]	Klebsiella pneumoniae MITC95 [3] [µM]	Serratia marcescens MITC95 [4] [µM]	Escherichia coli MITC95 [5] [µM]	Efflux ratio [6]	IC50 (NDM-1) [nM]	IC50 (IMP-1) [nM]	IC50 (VIM-1; [7]) [nM]
NCc1nc2c(-c3ccc(S(=O)(=O)N[C@@H]4CCNC4)c(S(N)(=O)=O)c3-c3nn[nH]n3)cccc2s1 [Example 276, (R)-4-(2-(aminomethyl)benzo[d]thiazol-4-yl)-N1-(pyrrolidin-3-yl)-3-(2H-tetrazol-5-yl)benzene-1,2-disulfonamide]	0.7813	0.0881	0.7813	0.7813	0.7813	1.172	1.00	0.0561	0.542	–
Nc1cccc(-c2ccc(S(=O)(=O)N[C@@H]3CCNC3)c(S(N)(=O)=O)c2-c2nn[nH]n2)n1 [Example 277, (R)-4-(6-aminopyridin-2-yl)-N1-(pyrrolidin-3-yl)-3-(2H-tetrazol-5-yl)benzene-1,2-disulfonamide]	0.7813	–	0.7813	1.563	1.563	0.7813	1.00	0.148	1.27	0.129
NCc1ncc(-c2cccc(-c3ccc(S(=O)(=O)N[C@@H]4CCNC4)c(S(N)(=O)=O)c3-c3nn[nH]n3)c2)[nH]1 [Example 278, (R)-3′-(2-(aminomethyl)-1H-imidazol-5-yl)-N4-(pyrrolidin-3-yl)-2-(2H-tetrazol-5-yl)-[1,1′-biphenyl]-3,4-disulfonamide]	0.7813	0.144	0.7813	0.7813	0.7813	0.7813	1.00	0.0566	0.64	–
NCCn1nc2cccc(-c3ccc(S(=O)(=O)N[C@@H]4CCNC4)c(S(N)(=O)=O)c3-c3nn[nH]n3)c2n1 [Example 279, (R)-4-(2-(2-aminoethyl)-2H-benzo[d][1,2,3]triazol-4-yl)-N1-(pyrrolidin-3-yl)-3-(2H-tetrazol-5-yl)benzene-1,2-disulfonamide]	0.7813	0.133	0.7813	0.7813	0.7813	0.7813	1.00	0.232	3.03	–
CNc1nc2c(-c3ccc(S(=O)(=O)N[C@@H]4CCNC4)c(S(N)(=O)=O)c3-c3nn[nH]n3)cccc2[nH]1 [Example 280, (R)-4-(2-(methylamino)-1H-benzo[d]imidazol-4-yl)-N1-(pyrrolidin-3-yl)-3-(2H-tetrazol-5-yl)benzene-1,2-disulfonamide]	0.7813	–	0.3906	1.563	0.7813	0.7813	0.50	0.0408	0.61	0.158
Cn1nc2cccc(-c3ccc(S(=O)(=O)N[C@@H]4CCNC4)c(S(N)(=O)=O)c3-c3nn[nH]n3)c2n1 [Example 281, (R)-4-(2-methyl-2H-benzo[d][1,2,3]triazol-4-yl)-N1-(pyrrolidin-3-yl)-3-(2H-tetrazol-5-yl)benzene-1,2-disulfonamide]	1.563	–	3.125	3.125	1.563	1.563	2.00	0.0166	0.75	0.0515

— US10221163B2 (priority 2015, dated 2019)
